Measurements as given in ChEMBL document CHEMBL1201862, “PubChem BioAssay data set” (2004).
Calls of active or inactive are those of the source.

Experiments:
[1] = target: T1, Sentrin-specific protease 7 (Homo sapiens, UniProt Q9BQF6); test: SENP7 protease inhibitors, SAR follow-up, biochemical, luminescence, set 2 (AID 588600); assay type: functional
T1 sequence (Q9BQF6 whole entry): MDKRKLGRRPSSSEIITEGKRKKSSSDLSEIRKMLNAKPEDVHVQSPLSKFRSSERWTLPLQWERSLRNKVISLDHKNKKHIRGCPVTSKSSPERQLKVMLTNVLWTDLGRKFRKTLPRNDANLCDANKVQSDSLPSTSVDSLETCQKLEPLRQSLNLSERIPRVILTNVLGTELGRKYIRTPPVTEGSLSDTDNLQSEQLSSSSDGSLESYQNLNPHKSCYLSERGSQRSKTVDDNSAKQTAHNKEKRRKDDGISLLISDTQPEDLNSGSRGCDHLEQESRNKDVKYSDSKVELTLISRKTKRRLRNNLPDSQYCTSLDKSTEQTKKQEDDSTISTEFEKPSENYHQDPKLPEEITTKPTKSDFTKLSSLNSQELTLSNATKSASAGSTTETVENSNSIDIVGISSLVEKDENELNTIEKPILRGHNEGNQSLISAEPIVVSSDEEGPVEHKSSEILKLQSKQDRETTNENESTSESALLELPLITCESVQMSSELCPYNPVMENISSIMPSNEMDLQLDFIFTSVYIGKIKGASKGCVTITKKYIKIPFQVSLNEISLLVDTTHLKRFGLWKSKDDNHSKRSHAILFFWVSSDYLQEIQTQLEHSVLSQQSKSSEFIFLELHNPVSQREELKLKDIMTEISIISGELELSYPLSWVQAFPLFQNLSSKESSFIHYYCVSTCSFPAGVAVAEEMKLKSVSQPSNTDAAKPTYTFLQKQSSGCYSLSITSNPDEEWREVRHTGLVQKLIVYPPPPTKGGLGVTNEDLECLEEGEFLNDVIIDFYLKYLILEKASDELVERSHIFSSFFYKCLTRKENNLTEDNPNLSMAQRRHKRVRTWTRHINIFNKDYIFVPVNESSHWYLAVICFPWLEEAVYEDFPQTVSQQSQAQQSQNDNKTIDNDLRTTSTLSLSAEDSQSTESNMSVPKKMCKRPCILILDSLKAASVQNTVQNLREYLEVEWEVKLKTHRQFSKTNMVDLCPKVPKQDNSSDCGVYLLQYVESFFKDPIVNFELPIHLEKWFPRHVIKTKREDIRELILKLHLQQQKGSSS

Caspase-3 [2] = target: T2, Caspase-3 (Homo sapiens, UniProt P42574); test: caspase-3 inhibitors as off-family protease, SAR follow-up, selectivity assay for SENP protease inhibitor project, biochemical, luminescence, set 2 (AID 588599); assay type: functional
T2 sequence (P42574 whole entry): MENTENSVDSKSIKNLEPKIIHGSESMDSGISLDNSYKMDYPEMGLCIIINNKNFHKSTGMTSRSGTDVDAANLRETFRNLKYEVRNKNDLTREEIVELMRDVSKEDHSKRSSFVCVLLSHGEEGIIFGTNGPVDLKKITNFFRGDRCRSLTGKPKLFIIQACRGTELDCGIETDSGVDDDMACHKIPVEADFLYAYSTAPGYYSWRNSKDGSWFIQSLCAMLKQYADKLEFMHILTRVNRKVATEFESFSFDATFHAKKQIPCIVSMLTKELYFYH

[3] = target: T3, Sentrin-specific protease 8 (Homo sapiens, UniProt Q96LD8); test: SENP8 protease inhibitors, SAR follow-up, biochemical, luminescence, set 2 (AID 588601); assay type: functional
T3 sequence (Q96LD8 whole entry): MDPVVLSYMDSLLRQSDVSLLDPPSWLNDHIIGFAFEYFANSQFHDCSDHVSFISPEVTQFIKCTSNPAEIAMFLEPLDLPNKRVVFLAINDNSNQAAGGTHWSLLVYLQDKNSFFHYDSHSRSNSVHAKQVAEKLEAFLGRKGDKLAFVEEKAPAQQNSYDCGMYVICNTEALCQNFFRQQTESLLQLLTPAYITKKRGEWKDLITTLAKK

[4] = target: T4, Sentrin-specific protease 6 (Homo sapiens, UniProt Q9GZR1); test: SENP6 protease inhibitors, SAR follow-up, biochemical, luminescence, set 2 (AID 588598); assay type: functional
T4 sequence (Q9GZR1 whole entry): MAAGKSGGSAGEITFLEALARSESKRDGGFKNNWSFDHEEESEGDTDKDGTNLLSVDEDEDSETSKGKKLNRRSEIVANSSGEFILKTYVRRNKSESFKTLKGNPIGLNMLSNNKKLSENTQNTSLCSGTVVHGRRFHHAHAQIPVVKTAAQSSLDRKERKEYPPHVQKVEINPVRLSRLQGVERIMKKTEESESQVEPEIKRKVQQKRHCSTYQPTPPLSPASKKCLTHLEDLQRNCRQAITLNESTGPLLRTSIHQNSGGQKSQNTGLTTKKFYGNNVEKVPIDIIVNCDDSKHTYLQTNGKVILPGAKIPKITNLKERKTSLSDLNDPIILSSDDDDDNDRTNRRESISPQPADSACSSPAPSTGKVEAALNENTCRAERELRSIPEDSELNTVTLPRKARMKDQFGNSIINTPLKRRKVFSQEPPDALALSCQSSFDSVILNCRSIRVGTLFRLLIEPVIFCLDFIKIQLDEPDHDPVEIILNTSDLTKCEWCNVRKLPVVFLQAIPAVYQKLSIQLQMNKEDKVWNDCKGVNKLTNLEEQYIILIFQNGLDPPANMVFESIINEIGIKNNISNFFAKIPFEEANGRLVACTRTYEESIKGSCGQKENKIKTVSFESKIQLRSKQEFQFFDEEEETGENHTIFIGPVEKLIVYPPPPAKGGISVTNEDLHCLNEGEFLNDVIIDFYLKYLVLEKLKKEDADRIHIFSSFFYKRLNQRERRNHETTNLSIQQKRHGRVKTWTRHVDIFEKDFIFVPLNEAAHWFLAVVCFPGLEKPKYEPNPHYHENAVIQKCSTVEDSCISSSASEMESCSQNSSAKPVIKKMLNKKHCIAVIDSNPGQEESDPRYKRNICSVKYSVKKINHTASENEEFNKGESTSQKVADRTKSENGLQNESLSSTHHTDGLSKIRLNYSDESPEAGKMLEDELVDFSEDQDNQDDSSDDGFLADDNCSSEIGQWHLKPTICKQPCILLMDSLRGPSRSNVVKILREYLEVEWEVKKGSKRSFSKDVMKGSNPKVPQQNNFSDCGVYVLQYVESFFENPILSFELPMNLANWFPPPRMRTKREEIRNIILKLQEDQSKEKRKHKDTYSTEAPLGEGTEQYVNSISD

Caspase-3 [5] = target: T2, Caspase-3; test: SAR Analysis of small molecule inhibitors of Sentrin-specific proteases (SENPs) using a Caspase-3 Selectivity assay. [Related pubchem assays (depositor defined):AID2540, AID2599, AID434973, AID489001]; assay type: functional
[6] = target: T3, Sentrin-specific protease 8; test: SENP8 protease inhibitors, SAR follow-up, biochemical, luminescence (AID 504501); assay type: functional
[7] = target: T1, Sentrin-specific protease 7; test: SENP7 protease inhibitors, SAR follow-up, biochemical, luminescence (AID 504497); assay type: functional
[8] = target: T4, Sentrin-specific protease 6; test: SAR Analysis of small molecule inhibitors of Sentrin-specific protease 6 (SENP6) using a Luminescent assay. [Related pubchem assays (depositor defined):AID2582, AID2599]; assay type: functional
[9] = THP-1 cell cytotoxicity, cytotoxicity control, set 6 (AID 602433); assay type: functional; conditions: Mycobacterium tuberculosis
[10] = target: Ribosomal protein S6 kinase alpha-3 (Homo sapiens, UniProt P51812); assay type: functional;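 further: measured within a kinome-wide profiling panel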
[11] = target: Serine/threonine-protein kinase Chk1 (Homo sapiens, UniProt O14757); assay type: functional;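 further: measured as one member of a kinome-wide kinase profiling panel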
[12] = target: Serine/threonine-protein kinase pim-1 (Homo sapiens, UniProt P11309); assay type: functional
[13] = target: Protein kinase C gamma type (Homo sapiens, UniProt P05129); assay type: functional
[14] = target: Lymphokine-activated killer T-cell-originated protein kinase (Homo sapiens, UniProt Q96KB5); assay type: functional;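 further: value comes from a kinase panel screen in which TOPK was one of the panel members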
[15] = target: Testis-specific serine/threonine-protein kinase 2 (Homo sapiens, UniProt Q96PF2); assay type: functional;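 further: part of the Navigating the Kinome panel, target entry STK22B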
[16] = target: Dual specificity tyrosine-phosphorylation-regulated kinase 4 (Homo sapiens, UniProt Q9NR20); assay type: functional
[17] = target: Serine/threonine-protein kinase D2 (Homo sapiens, UniProt Q9BZL6); assay type: functional;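 further: measured against PRKD2 as one member of a kinome-wide kinase profiling panel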
[18] = target: Eukaryotic elongation factor 2 kinase (Homo sapiens, UniProt O00418); assay type: functional
[19] = target: MAP kinase-activated protein kinase 3 (Homo sapiens, UniProt Q16644); assay type: functional;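 further: value comes from a kinome-wide profiling panel in which MAPKAPK3 is one of the panel members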
[20] = target: Voltage-gated inwardly rectifying potassium channel KCNH2 (Homo sapiens, UniProt Q12809); conditions: Potency;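 further: confirmatory quantitative high-throughput screen measuring inhibition of hERG channel activity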
Streptococcus = test: Group A Streptococcus viability loss, dose response, counter-screen for streptokinase expression inhibitor project, luminescence, BacTiterGlo (AID 1915); assay type: functional, organism-based;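 further: potency for reduction of bacterial viability or growth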
[21] = target: C-C chemokine receptor type 6 (Homo sapiens, UniProt P51684); test: CCR6 receptor antagonists, SAR follow-up, cell-based, luminescent beta-arrestin readout (AID 540334); assay type: functional
Streptokinase A = target: T5, Streptokinase A (Streptococcus pyogenes serotype M1, UniProt P10520); test: S. pyogenes streptokinase expression inhibitors, potency, dose response, plasminogen activation absorbance, OD405 (AID 1914); assay type: functional, Streptococcus pyogenes M1 GAS;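 further: secreted streptokinase activity via plasminogen activation per viability signal from cell pellet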
T5 sequence (P10520 whole entry): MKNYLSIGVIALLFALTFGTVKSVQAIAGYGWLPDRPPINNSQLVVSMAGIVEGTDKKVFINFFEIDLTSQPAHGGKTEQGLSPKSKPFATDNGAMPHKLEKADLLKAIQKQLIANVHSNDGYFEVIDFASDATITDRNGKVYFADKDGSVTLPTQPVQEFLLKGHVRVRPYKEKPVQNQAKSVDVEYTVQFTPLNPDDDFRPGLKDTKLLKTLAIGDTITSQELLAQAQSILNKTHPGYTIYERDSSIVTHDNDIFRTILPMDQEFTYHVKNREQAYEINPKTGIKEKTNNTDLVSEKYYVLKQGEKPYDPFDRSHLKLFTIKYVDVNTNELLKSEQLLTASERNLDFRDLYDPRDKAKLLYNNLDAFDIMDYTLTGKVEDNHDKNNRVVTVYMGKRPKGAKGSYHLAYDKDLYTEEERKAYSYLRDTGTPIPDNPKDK

[22] = target: T6, Ubiquitin-conjugating enzyme E2 N (Homo sapiens, UniProt P61088); assay type: functional
T6 sequence (P61088 whole entry): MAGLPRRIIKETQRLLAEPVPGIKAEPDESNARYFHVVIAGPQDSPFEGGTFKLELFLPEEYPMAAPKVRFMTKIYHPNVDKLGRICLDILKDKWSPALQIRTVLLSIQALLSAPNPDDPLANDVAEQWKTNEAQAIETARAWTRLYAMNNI

[23] = target: T6, Ubiquitin-conjugating enzyme E2 N; assay type: functional; remark: listed apart in the source
[24] = test system: Streptococcus sp. 'group A'; test: growth inhibition of control SK(-) GAS strain, dose response, counter-screen for streptokinase expression inhibitor project, luminescence, kanamycin, BacTiterGlo, confirmation (AID 1900); assay type: functional, organism-based
[25] = target: C-X-C chemokine receptor type 5 (Homo sapiens, UniProt P32302); test: CXCR5 receptor antagonists, SAR follow-up, selectivity assay for CCR6 antagonist project, cell-based, beta-arrestin, luminescence, CHO-K1 PathHunter (AID 540340); assay type: functional
Apelin receptor = Apelin receptor (Homo sapiens, UniProt P35414); test: APJ beta-arrestin recruitment antagonism, SAR follow-up, selectivity assay for CCR6 antagonist project, cell-based, luminescent, enzyme-fragment complementation (AID 588359); assay type: functional
Bcl-2-related protein A1 = target: T7, Bcl-2-related protein A1 (Mus musculus, UniProt Q07440); assay type: functional;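 further: confirmatory dose–response counterscreen on Bfl-1, used to check hits from a UBC13 polyubiquitin inhibitor campaign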
T7 sequence (Q07440 whole entry): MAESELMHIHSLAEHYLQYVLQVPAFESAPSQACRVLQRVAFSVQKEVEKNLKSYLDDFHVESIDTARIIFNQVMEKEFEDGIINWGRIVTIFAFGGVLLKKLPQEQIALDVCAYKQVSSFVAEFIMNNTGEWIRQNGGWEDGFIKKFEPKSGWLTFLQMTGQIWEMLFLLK

[26] = target: Serine/threonine-protein kinase BRSK1 (Homo sapiens, UniProt Q8TDC3); assay type: functional;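 further: measured within a kinome-wide kinase panel, with the target listed as KIAA1811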
[27] = target: Megakaryocyte-associated tyrosine-protein kinase (Homo sapiens, UniProt P42679); assay type: functional;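 further: affinity measured as one member of a kinase panel (Navigating the Kinome) against MATK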
[28] = target: Interleukin-1 receptor-associated kinase 1 (Homo sapiens, UniProt P51617); assay type: functional;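 further: IRAK1 tested as one member of a kinome panel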
Interleukin-1 receptor-associated kinase 1, sequence (P51617 whole entry): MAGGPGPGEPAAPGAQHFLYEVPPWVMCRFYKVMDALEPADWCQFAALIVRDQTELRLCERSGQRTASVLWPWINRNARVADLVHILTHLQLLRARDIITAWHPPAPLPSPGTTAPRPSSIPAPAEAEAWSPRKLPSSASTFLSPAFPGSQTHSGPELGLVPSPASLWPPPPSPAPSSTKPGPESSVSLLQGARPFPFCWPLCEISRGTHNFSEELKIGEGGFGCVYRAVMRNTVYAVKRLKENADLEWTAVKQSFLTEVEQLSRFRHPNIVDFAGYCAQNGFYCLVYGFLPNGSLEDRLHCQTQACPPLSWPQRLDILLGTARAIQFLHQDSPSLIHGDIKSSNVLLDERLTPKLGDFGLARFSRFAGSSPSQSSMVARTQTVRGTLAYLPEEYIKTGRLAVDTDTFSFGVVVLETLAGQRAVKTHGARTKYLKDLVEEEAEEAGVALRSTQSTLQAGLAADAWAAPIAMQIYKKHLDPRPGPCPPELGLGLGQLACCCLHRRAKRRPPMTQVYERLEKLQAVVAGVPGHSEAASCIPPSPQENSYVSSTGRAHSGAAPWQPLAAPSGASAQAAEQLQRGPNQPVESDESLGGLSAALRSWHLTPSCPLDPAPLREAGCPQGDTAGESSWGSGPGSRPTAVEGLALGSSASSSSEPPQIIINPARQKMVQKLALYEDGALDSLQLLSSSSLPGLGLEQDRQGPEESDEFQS

Eukaryotic elongation factor 2 kinase, sequence (O00418 whole entry): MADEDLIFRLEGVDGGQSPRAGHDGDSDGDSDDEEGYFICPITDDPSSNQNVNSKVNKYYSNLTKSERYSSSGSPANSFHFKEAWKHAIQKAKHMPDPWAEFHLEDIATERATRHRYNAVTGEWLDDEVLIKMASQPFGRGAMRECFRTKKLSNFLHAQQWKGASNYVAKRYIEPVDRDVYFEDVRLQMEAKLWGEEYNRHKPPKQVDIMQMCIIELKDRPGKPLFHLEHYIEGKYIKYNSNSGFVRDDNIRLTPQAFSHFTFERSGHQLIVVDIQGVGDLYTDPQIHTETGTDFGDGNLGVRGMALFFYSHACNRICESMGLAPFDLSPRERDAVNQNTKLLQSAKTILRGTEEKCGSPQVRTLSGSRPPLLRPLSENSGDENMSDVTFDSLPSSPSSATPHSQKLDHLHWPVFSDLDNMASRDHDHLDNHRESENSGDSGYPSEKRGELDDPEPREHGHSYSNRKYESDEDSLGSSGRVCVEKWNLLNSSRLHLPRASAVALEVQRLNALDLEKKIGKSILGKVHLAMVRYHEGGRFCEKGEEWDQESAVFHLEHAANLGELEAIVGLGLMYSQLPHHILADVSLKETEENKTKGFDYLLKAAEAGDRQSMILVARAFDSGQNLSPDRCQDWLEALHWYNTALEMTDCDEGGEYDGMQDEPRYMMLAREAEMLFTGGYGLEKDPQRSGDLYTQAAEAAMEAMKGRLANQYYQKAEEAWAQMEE
MAP kinase-activated protein kinase 3, sequence (Q16644 whole entry): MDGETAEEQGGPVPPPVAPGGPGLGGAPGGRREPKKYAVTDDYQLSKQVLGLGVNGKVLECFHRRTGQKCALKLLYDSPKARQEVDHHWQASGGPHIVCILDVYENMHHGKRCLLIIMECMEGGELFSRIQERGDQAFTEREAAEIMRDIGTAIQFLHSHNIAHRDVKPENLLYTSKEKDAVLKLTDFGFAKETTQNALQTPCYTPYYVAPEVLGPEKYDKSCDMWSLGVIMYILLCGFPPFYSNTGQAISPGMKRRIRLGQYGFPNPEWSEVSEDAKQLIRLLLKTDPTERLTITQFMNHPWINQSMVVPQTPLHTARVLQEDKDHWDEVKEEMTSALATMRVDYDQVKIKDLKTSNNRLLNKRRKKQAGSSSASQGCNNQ
Megakaryocyte-associated tyrosine-protein kinase, sequence (P42679 whole entry): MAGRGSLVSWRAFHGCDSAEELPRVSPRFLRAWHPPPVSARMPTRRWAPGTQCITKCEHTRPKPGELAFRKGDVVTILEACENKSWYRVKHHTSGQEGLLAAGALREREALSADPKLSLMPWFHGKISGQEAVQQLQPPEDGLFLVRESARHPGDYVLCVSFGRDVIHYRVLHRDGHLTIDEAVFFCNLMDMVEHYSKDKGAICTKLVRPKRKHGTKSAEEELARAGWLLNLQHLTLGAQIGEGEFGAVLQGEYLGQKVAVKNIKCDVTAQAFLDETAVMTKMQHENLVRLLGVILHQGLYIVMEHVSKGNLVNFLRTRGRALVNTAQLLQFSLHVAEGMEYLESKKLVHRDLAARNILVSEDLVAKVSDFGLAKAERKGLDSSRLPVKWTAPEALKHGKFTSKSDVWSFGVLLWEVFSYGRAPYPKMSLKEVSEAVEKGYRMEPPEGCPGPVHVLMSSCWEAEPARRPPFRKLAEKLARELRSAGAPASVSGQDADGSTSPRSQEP
C-C chemokine receptor type 6, sequence (P51684 whole entry): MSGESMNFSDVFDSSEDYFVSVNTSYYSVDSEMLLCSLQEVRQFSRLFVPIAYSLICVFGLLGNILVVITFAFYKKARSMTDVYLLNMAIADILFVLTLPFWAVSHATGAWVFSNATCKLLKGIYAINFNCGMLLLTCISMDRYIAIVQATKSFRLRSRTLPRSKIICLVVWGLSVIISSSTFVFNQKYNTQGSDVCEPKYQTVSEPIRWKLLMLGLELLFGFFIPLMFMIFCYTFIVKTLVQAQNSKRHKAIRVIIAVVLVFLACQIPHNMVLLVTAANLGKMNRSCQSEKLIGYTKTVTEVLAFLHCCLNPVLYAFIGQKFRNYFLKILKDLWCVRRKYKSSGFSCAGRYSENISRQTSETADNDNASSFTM
Apelin receptor, sequence (P35414 whole entry, the tested form may be a part): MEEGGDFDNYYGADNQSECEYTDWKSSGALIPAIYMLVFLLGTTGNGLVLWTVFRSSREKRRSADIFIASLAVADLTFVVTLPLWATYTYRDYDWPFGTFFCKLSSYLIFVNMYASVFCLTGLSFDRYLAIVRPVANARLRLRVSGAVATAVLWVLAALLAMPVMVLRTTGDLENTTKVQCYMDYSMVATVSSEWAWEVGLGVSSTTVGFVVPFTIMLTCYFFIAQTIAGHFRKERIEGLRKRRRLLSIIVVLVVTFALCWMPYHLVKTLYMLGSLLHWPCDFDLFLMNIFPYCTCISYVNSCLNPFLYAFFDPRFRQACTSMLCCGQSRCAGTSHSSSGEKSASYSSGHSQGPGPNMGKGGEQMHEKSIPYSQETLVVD
Serine/threonine-protein kinase BRSK1, sequence (Q8TDC3 whole entry): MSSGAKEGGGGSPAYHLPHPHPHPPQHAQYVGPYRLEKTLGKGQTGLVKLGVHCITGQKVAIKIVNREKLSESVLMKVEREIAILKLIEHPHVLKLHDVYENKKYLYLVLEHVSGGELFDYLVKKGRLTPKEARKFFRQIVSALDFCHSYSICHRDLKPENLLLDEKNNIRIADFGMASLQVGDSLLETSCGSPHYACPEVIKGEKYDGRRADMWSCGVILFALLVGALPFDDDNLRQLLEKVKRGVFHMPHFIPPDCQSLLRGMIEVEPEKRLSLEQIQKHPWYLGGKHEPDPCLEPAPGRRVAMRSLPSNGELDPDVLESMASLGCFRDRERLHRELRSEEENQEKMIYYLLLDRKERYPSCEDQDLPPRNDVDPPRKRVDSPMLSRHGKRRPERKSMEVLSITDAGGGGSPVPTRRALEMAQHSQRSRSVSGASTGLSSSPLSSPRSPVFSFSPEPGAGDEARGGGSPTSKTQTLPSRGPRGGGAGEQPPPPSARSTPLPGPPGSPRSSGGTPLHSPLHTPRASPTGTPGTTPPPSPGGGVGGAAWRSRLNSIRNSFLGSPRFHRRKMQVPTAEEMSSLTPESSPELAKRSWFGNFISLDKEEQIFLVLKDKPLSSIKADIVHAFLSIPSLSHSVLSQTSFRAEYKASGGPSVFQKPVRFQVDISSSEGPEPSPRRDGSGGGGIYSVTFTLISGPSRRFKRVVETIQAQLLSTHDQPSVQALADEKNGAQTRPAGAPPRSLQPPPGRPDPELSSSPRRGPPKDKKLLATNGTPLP
Serine/threonine-protein kinase Chk1, sequence (O14757 whole entry): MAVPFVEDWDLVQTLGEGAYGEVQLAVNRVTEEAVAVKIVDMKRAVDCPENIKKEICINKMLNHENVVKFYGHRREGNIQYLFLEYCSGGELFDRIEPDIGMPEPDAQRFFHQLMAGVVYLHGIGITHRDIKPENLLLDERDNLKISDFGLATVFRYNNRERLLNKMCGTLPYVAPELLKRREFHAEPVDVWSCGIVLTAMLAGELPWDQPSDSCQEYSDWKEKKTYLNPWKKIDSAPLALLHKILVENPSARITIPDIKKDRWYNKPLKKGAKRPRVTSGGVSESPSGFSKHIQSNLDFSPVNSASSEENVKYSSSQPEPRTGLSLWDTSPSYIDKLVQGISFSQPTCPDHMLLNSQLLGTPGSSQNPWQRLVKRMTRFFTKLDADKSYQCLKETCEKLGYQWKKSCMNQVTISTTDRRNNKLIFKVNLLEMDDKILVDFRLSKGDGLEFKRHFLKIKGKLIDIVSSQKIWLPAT
Dual specificity tyrosine-phosphorylation-regulated kinase 4, sequence (Q9NR20 whole entry): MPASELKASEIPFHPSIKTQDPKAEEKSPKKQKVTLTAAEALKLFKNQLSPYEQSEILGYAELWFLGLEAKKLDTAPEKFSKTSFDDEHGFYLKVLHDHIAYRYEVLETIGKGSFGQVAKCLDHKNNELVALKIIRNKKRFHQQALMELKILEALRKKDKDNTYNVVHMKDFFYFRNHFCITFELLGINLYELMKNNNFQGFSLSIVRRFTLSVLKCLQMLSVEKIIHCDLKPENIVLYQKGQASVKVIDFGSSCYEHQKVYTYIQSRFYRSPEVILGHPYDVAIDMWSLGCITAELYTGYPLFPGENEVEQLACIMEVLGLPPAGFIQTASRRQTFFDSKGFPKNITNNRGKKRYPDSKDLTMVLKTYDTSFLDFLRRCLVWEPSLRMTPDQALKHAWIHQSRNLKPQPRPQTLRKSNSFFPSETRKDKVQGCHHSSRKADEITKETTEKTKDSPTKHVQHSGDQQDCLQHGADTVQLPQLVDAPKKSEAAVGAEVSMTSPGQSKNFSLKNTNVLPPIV

SMILES: Oc1ccccc1-c1nc(/C=C/c2ccc(Cl)cc2)no1
- IC50 [1]: 2.08 µM (active)
- IC50 (Caspase-3 [2]): 1.57 µM (active)
- IC50 [3]: 1.44 µM (active)
- IC50 [4]: 1.5 µM (active)
- IC50 (Caspase-3 [5]): 3.7 µM (active)
- IC50 [6]: > 99 µM (inactive)
- IC50 [7]: 1.4 µM (active)
- IC50 [8]: > 99 µM (inactive)

SMILES: COCCNC(=O)CSc1nc2ccccc2c(=O)[nH]1
- CC50 [9]: > 100 µM (active)

SMILES: Cc1ccc2c(=O)[nH]cnc2c1
- Ki [10]: 5.01 µM (active)
- Ki [11]: 15.8 µM (active)
- Ki [12]: 7.94 µM (active)

SMILES: CCN(CC)CCNC(=O)c1c(C)[nH]c(C=C2C(=O)Nc3ccc(F)cc32)c1C
- Ki [13]: > 6.31 µM (inactive)
- Ki [14]: > 10 µM (inactive)
- Ki [15]: 0.631 µM (active)
- Ki [16]: > 7.94 µM (inactive)
- Ki [17]: 0.398 µM (active)
- Ki [18]: > 3.98 µM (inactive)
- Ki [19]: > 10 µM (inactive)

SMILES: CCCCCCCCCCCCC/C=C/[C@@H](O)[C@@H](N)CO [SPHINGOSINE]
- AC50 [20]: 35.5 µM (inconclusive)
- EC50 (Streptococcus): 8.1 µM (active)
- IC50 [21]: 20.9 µM (inactive)
- EC50 (Streptokinase A): > 150 µM (not active)
- IC50 [22]: 6.42 µM (active)
- IC50 [23]: 6.2 µM (active)
- EC50 [24]: 1.52 µM (active)
- IC50 [25]: 32.5 µM (inactive)
- IC50 (Apelin receptor): > 66.6 µM (inactive)
- IC50 (Bcl-2-related protein A1): > 20 µM (inactive)

SMILES: CC1=NN(c2ccc(C(=O)O)cc2)C(=O)C1=Cc1c(C)cc2nc3ccccc3n2c1O
- Ki [26]: 5.01 µM (active)
- Ki [27]: 1.58 µM (active)
- Ki [28]: 6.31 µM (active)
